The supplement of paper PMC11061612

Columns and labels:
Experiment in all cases: combination Emax (second highest fraction inhibited in the dose matrix, 72 h); higher = more inhibition; extreme values may be limits of the assay
[1] = tested on: AM-38 (Glioblastoma)
Summary of the method: (§1)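 Cell lines in DMEM/F12 or RPMI with 10% FBS were plated in 1536-well plates, held 24 hours at 37°C, 5% CO2, then given two-drug dose matrices for 72 hours (DMSO typically 0.2%). Viability was read by CellTiter-Glo 2.0 luminescence and scaled as inhibition from 0 (vehicle wells) to 1 (blank wells). Combination Emax is the second-highest inhibition in the matrix; Bliss excess is observed combination effect minus expected EA + EB − EA·EB, EA and EB being single-agent effects.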

[2] = tested on: CL-11 (Colorectal Carcinoma)
Summary of the method: as §1

[3] = tested on: HT-1080 (Other Solid Carcinomas)
Summary of the method: as §1

[4] = tested on: IST-MEL1 (Melanoma)
Summary of the method: as §1

[5] = tested on: KALS-1 (Glioblastoma)
Summary of the method: as §1

[6] = tested on: LS-1034 (Colorectal Carcinoma)
Summary of the method: as §1

[7] = tested on: MDA-MB-415 (Breast Carcinoma)
Summary of the method: as §1

[8] = tested on: MM1S (Plasma Cell Myeloma)
Summary of the method: as §1

[9] = tested on: MOLP-8 (Plasma Cell Myeloma)
Summary of the method: as §1

[10] = tested on: MOLT-13 (T-Lymphoblastic Leukemia)
Summary of the method: as §1

[11] = tested on: NCI-H1341 (Small Cell Lung Carcinoma)
Summary of the method: as §1

[12] = tested on: NCI-H1876 (Small Cell Lung Carcinoma)
Summary of the method: as §1

[13] = tested on: NCI-H3118 (Head and Neck Carcinoma)
Summary of the method: as §1

[14] = tested on: NCI-H596 (Other Solid Carcinomas)
Summary of the method: as §1

[15] = tested on: RCC-JW (Kidney Carcinoma)
Summary of the method: as §1

[16] = tested on: SKG-IIIa (Cervical Carcinoma)
Summary of the method: as §1

[17] = tested on: SNU-407 (Colorectal Carcinoma)
Summary of the method: as §1

[18] = tested on: SNU-C2B (Colorectal Carcinoma)
Summary of the method: as §1

[19] = tested on: T47D (Breast Carcinoma)
Summary of the method: as §1

[20] = tested on: UACC-257 (Melanoma)
Summary of the method: as §1

Row | Structure (SMILES) | combination Emax [1] | combination Emax [2] | combination Emax [3] | combination Emax [4] | combination Emax [5] | combination Emax [6] | combination Emax [7] | combination Emax [8] | combination Emax [9] | combination Emax [10] | combination Emax [11] | combination Emax [12] | combination Emax [13] | combination Emax [14] | combination Emax [15] | combination Emax [16] | combination Emax [17] | combination Emax [18] | combination Emax [19] | combination Emax [20]
1 | Cc1c2c(nn1C)CSCc1cc(n(C)n1)CSc1cc(c3ccccc3c1)OCCCc1c(C(=O)O)n(C)c3c-2c(Cl)ccc13 [AZD5991] + Cn1cnc2c(F)c(Nc3ccc(Br)cc3Cl)c(C(=O)NOCCO)cc21 [Selumetinib] (first compound max 1 µM, 7x7, partner max 3 µM) | 0.709 | 0.525 | 0.428 | 0.395 | 0.24 | 0.587 | 0.398 | 0.998 | 1 | 1 | 0.496 | 0.748 | 0.481 | 0.241 | 0.228 | 0.24 | 0.789 | 0.356 | 0.364 | 0.817
2 | C[C@@H]1COCCN1c1cc(C2([S@](C)(=N)=O)CC2)nc(-c2ccnc3[nH]ccc23)n1 [AZD6738] + O=C(c1cc(Cc2n[nH]c(=O)c3ccccc23)ccc1F)N1CCN(C(=O)C2CC2)CC1 [Olaparib] (first compound max 10 µM, 7x7, partner max 10 µM) | 0.747 | 0.758 | 0.45 | 0.726 | 0.793 | 0.56 | 0.446 | 0.642 | 0.794 | 0.999 | 0.755 | 0.945 | 0.64 | 0.5 | 0.552 | 0.444 | 0.75 | 0.69 | 0.301 | 0.142
3 | Cc1cc2ncnn2cc1Nc1ncc2c(n1)n(C1CCOCC1)c(=O)n2C [AZD7648] + C=CCn1c(=O)c2cnc(Nc3ccc(N4CCN(C)CC4)cc3)nc2n1-c1cccc(C(C)(C)O)n1 [AZD1775] (first compound max 10 µM, partner max 1 µM) | 0.343 | 0.638 | 0.405 | 0.577 | 0.846 | 0.379 | 0.488 | 0.811 | 0.828 | 0.953 | 0.69 | 0.976 | 0.897 | 0.357 | 0.413 | 0.43 | 0.446 | 0.551 | 0.468 | 0.226
4 | Cc1cc2ncnn2cc1Nc1ncc2c(n1)n(C1CCOCC1)c(=O)n2C [AZD7648] + CCN(CCO)CCCOc1ccc2c(Nc3cc(CC(=O)Nc4cccc(F)c4)[nH]n3)ncnc2c1 [AZD2811] (first compound max 10 µM, 7x7, partner max 1 µM) | 0.405 | 0.276 | 0.261 | 0.457 | 0.386 | 0.264 | 0.472 | 0.346 | 0.493 | 0.973 | 0.371 | 0.794 | 0.239 | 0.243 | 0.447 | 0.297 | 0.376 | 0.224 | 0.456 | 0.278
5 | Cc1cc2ncnn2cc1Nc1ncc2c(n1)n(C1CCOCC1)c(=O)n2C [AZD7648] + CN(C)CCCOc1ccc(-c2ccc3ncc4c(c3c2)n(C2CCOCC2)c(=O)n4C)cn1 [AZD0156] (first compound max 10 µM, 7x7, partner max 1 µM) | 0.417 | 0.255 | 0.151 | 0.275 | 0.346 | 0.239 | 0.504 | 0.389 | 0.514 | 0.15 | 0.34 | 0.317 | 0.215 | 0.243 | 0.339 | 0.241 | 0.179 | 0.311 | 0.501 | 0.186
6 | Cc1cc2ncnn2cc1Nc1ncc2c(n1)n(C1CCOCC1)c(=O)n2C [AZD7648] + C[C@@H]1COCCN1C2=NC(=NC(=C2)C3(CC3)[S@](=N)(=O)C)C4=C5C=CNC5=NC=C4 [AZD6738] (first compound max 10 µM, 7x7, partner max 10 µM) | 0.758 | 0.767 | 0.426 | 0.777 | 0.866 | 0.696 | 0.515 | 0.592 | 0.822 | 0.903 | 0.801 | 0.809 | 0.647 | 0.365 | 0.568 | 0.318 | 0.663 | 0.63 | 0.464 | 0.15
7 | Cc1cc2ncnn2cc1Nc1ncc2c(n1)n(C1CCOCC1)c(=O)n2C [AZD7648] + O=C(c1cc(Cc2n[nH]c(=O)c3ccccc23)ccc1F)N1CCN(C(=O)C2CC2)CC1 [Olaparib] (first compound max 10 µM, 7x7, partner max 10 µM) | 0.616 | 0.144 | 0.147 | 0.24 | 0.18 | 0.0469 | 0.263 | 0.339 | 0.382 | 0.35 | 0.433 | 0.723 | 0.167 | 0.361 | 0.198 | 0.0374 | 0.239 | 0.28 | 0.313 | 0.0535
8 | NC1(C(=O)N[C@@H](CCO)c2ccc(Cl)cc2)CCN(c2ncnc3[nH]ccc23)CC1 [Capivasertib] + CC(=O)c1c(C)c2cnc(Nc3ccc(N4CCNCC4)cn3)nc2n(C2CCCC2)c1=O [Palbociclib] (first compound max 10 µM, 7x7, partner max 10 µM) | 0.473 | 0.358 | 0.101 | 0.48 | 0.398 | 0.499 | 0.769 | 0.981 | 0.655 | 0.732 | 0.506 | 0.253 | 0.519 | 0.596 | 0.449 | 0.27 | 0.678 | 0.424 | 0.434 | 0.276
9 | NC1(C(=O)N[C@@H](CCO)c2ccc(Cl)cc2)CCN(c2ncnc3[nH]ccc23)CC1 [Capivasertib] + CC(C)n1c(=O)n(C)c2cnc3cc(F)c(-c4ccc(OCCCN5CCCCC5)nc4)cc3c21 [AZD1390] (first compound max 10 µM, 7x7, partner max 0.3 µM) | 0.17 | 0.223 | 0.194 | 0.359 | 0.41 | 0.322 | 0.846 | 0.999 | 0.452 | 0.132 | 0.532 | 0.172 | 0.247 | 0.542 | 0.387 | 0.244 | 0.503 | 0.303 | 0.37 | 0.26
10 | NC1(C(=O)N[C@@H](CCO)c2ccc(Cl)cc2)CCN(c2ncnc3[nH]ccc23)CC1 [Capivasertib] + CCN(CCO)CCCOc1ccc2c(Nc3cc(CC(=O)Nc4cccc(F)c4)[nH]n3)ncnc2c1 [AZD2811] (first compound max 10 µM, 7x7, partner max 1 µM) | 0.285 | 0.272 | 0.256 | 0.459 | 0.495 | 0.302 | 0.837 | 0.998 | 0.583 | 0.992 | 0.655 | 0.941 | 0.241 | 0.564 | 0.358 | 0.374 | 0.714 | 0.329 | 0.456 | 0.394
11 | NC1(C(=O)N[C@@H](CCO)c2ccc(Cl)cc2)CCN(c2ncnc3[nH]ccc23)CC1 [Capivasertib] + COc1nnc2ccc(N3CCC(c4ccc(OCCN5CCN(C)C(=O)[C@H]5C)cc4)CC3)nn12 [AZD5153] (first compound max 10 µM, 7x7, partner max 1 µM) | 0.448 | 0.688 | 0.388 | 0.451 | 0.682 | 0.499 | 0.9 | 1 | 1 | 0.873 | 0.851 | 0.579 | 0.537 | 0.639 | 0.601 | 0.43 | 0.882 | 0.54 | 0.477 | 0.355
12 | NC1(C(=O)N[C@@H](CCO)c2ccc(Cl)cc2)CCN(c2ncnc3[nH]ccc23)CC1 [Capivasertib] + C[C@@H]1COCCN1C2=NC(=NC(=C2)C3(CC3)[S@](=N)(=O)C)C4=C5C=CNC5=NC=C4 [AZD6738] (first compound max 10 µM, 7x7, partner max 10 µM) | 0.7 | 0.718 | 0.435 | 0.785 | 0.784 | 0.746 | 0.846 | 0.99 | 0.85 | 0.957 | 0.928 | 0.934 | 0.603 | 0.575 | 0.635 | 0.5 | 0.82 | 0.647 | 0.481 | 0.389
13 | NC1(C(=O)N[C@@H](CCO)c2ccc(Cl)cc2)CCN(c2ncnc3[nH]ccc23)CC1 [Capivasertib] + Cn1cnc2c(F)c(Nc3ccc(Br)cc3Cl)c(C(=O)NOCCO)cc21 [Selumetinib] (first compound max 10 µM, 7x7, partner max 10 µM) | 0.675 | 0.8 | 0.466 | 0.584 | 0.61 | 0.657 | 0.85 | 1 | 0.715 | 0.555 | 0.728 | 0.239 | 0.657 | 0.575 | 0.369 | 0.435 | 0.767 | 0.388 | 0.42 | 0.731
